In patent publication US20060276464A1, “Diarylsulfone sulfonamides and use thereof” (Wyeth, priority 2005, published 2006) one finds IC50, EC50 and fold induction data, which are given here for 26 compounds.

In test [1] the target is T1, SFRP-1 (Homo sapiens, UniProt Q8N474).
T1 sequence (Q8N474 32-314): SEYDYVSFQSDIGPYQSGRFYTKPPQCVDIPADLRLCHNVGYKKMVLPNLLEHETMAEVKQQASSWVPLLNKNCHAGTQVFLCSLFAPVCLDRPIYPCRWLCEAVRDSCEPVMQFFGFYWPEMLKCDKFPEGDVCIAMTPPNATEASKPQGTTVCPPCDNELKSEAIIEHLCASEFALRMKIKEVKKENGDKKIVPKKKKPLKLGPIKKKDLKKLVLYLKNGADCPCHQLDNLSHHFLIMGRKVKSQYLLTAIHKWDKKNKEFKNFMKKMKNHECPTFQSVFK
As to the kind of experiment: Fluorescence polarization binding assay (competitive displacement of a probe compound from SFRP-1).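 Note: test compound competes with a fluorescent probe held by SFRP-1, seen as a drop in probe anisotropy after incubation in darkness, with anisotropy as function of rising compound dose.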 To be noted: fluorescence anisotropy, 45 nM SFRP-1, 20 nM probe. (In general: In fluorescence polarisation assays a small probe gives low polarisation when free and higher when bound to something large.)

The target in test [2] is T1, SFRP-1. As to the kind of experiment: Cell-based assay for in vitro measurement of SFRP-1/SARP2 antagonist activity (U2OS cells co-transfected with 16x TCF-tk-Luciferase reporter, Wnt and hSFRP-1).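 For all read-outs here: U2OS cells co-transfected with a TCF-tk luciferase reporter, a Wnt vector, hSFRP-1 or empty vector and CMV-βgal, luciferase luminescence read in cell lysates alongside βgal activity.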 Conditions: for fold induction at 10 µM: U2OS, read-out: Fold Induction with SFRP-1, U2OS cells, single dose 10 μM, luciferase reporter, fold induction over SFRP-1 control. For orientation: In a reporter assay the amount or activity of a reporter protein is the signal.

The structures appear in SMILES notation.

As for `CC(C)c1ccc(S(=O)(=O)c2ccccc2)cc1S(=O)(=O)NC[C@H]1CC[C@H](C(=O)O)CC1` [Example 954, trans-4-[({[2-isopropyl-5-(phenylsulfonyl)phenyl]sulfonyl}amino)methyl]cyclohexanecarboxylic acid], the IC50 in test [1] came to 900 nM. For the same compound, in test [2], the half-maximal effective concentration (EC50) worked out at 5570 nM and the fold induction at 10 µM was 2.2.
Compound `CN(CCCNS(=O)(=O)c1cc(S(=O)(=O)c2ccccc2)ccc1C(F)(F)F)C(=O)NC1CCN(C(=O)OC(C)(C)C)CC1` [Example 955] showed an IC50 in test [1] of 6000 nM. In test [2], a half-maximal response (EC50) required 5160 nM and the fold induction at 10 µM came to 2.4.
Take `O=C(O)c1cccc(N2CCC(CNS(=O)(=O)c3cc(S(=O)(=O)c4ccccc4)ccc3C(F)(F)F)CC2)c1` [Example 956, 3-{4-[({[5-(phenylsulfonyl)-2-(trifluoromethyl)phenyl]sulfonyl}amino)methyl]piperidin-1-yl}benzoic acid]: the IC50 in test [1] turned out to be 110 nM. Besides, in test [2], the EC50 is 310 nM and the fold induction at 10 µM turned out to be 4.3.
With `O=C(O)c1cccc(N2CCC(CCNS(=O)(=O)c3cc(S(=O)(=O)c4ccccc4)ccc3C(F)(F)F)CC2)c1` [Example 957, 3-{4-[2-({[5-(phenylsulfonyl)-2-(trifluoromethyl)phenyl]sulfonyl}amino)ethyl]piperidin-1-yl}benzoic acid], the IC50 in test [1] was determined as 300 nM. Further, in test [2], the concentration giving a half-maximal response (EC50) worked out at 1390 nM and the fold induction at 10 µM is 3.9.
For `N[C@H]1CC[C@H](NS(=O)(=O)c2cc(S(=O)(=O)c3ccccc3)ccc2C(F)(F)F)CC1` [Example 959, N-(trans-4-aminocyclohexyl)-5-(phenylsulfonyl)-2-(trifluoromethyl)benzenesulfonamide], in that order: 400 nM, 390 nM and 3.7.
For `CN(CCNS(=O)(=O)c1cc(S(=O)(=O)c2ccccc2)ccc1C(F)(F)F)CCC(=O)OC(C)(C)C` [Example 961, tert-butyl N-methyl-N-[2-({[5-(phenylsulfonyl)-2-(trifluoromethyl)phenyl]sulfonyl}amino)ethyl]-[…]-alaninate], in that order: 4000 nM, 2550 nM and 2.8.
Consider `CN(CCNS(=O)(=O)c1cc(S(=O)(=O)c2ccccc2)ccc1C(F)(F)F)CC(=O)OC(C)(C)C` [Example 962, tert-butyl N-methyl-N-[2-({[5-(phenylsulfonyl)-2-(trifluoromethyl)phenyl]sulfonyl}amino)ethyl]glycinate], for which the half-inhibitory concentration (IC50) in test [1] turned out to be 3000 nM. Further, in test [2], the EC50 came to 2860 nM and the fold induction at 10 µM was 2.7.
With `O=C(O)c1cccc(S(=O)(=O)Nc2ccc(CNS(=O)(=O)c3cc(S(=O)(=O)c4ccccc4)ccc3C(F)(F)F)cc2)c1` [Example 963], in test [1], the IC50 is 300 nM. Also, in test [2], a half-maximal response (EC50) required 1160 nM and the fold induction at 10 µM came out at 3.5.
Consider `N#Cc1ccc(CCNS(=O)(=O)c2cc(S(=O)(=O)c3ccccc3)ccc2C(F)(F)F)cc1` [Example 966, N-[2-(4-cyanophenyl)ethyl]-5-(phenylsulfonyl)-2-(trifluoromethyl)benzenesulfonamide], for which the IC50 in test [1] worked out at 500 nM. Also, in test [2], the EC50 was 229 nM and the fold induction at 10 µM came to 1.5.
`O=C(O)C1CCCC(NS(=O)(=O)c2cc(S(=O)(=O)c3ccccc3)ccc2C(F)(F)F)C1` (stereo not drawn) [Example 967, 3-({[5-(phenylsulfonyl)-2-(trifluoromethyl)phenyl]sulfonyl}amino)cyclohexanecarboxylic acid] returned an IC50 in test [1] of 2500 nM. Also, the fold induction at 10 µM in test [2] is 2.1.
Compound `O=C(O)C1CCC(NS(=O)(=O)c2cc(S(=O)(=O)c3ccccc3)ccc2C(F)(F)F)CC1` (stereo not drawn) [Example 968, 4-({[5-(phenylsulfonyl)-2-(trifluoromethyl)phenyl]sulfonyl}amino)cyclohexanecarboxylic acid] yielded an IC50 in test [1] of 1400 nM. Moreover, in test [2], the fold induction at 10 µM was found to be 2.4.
In test [1], `O=C(O)[C@H]1CC[C@H](CNS(=O)(=O)c2cc(S(=O)(=O)c3ccccc3)ccc2C(F)(F)F)CC1` [Example 969, trans-4-[({[5-(phenylsulfonyl)-2-(trifluoromethyl)phenyl]sulfonyl}amino)methyl]cyclohexanecarboxylic acid] registered an IC50 of 180 nM. For the same compound, in test [2], the EC50 was 588 nM and the fold induction at 10 µM is 3.1.
In the case of `CN(CCCNS(=O)(=O)c1cc(S(=O)(=O)c2ccccc2)ccc1C(F)(F)F)C(=O)NC1CCNCC1` [Example 971, N-(3-{methyl[(piperidin-4-ylamino)carbonyl]amino}propyl)-5-(phenylsulfonyl)-2-(trifluoromethyl)benzenesulfonamide], in test [1], the half-maximal inhibitory concentration (IC50) amounted to 600 nM. Further, in test [2], the midpoint of the response, the EC50, lay at 774 nM and the fold induction at 10 µM amounted to 2.7.
`CN(CCCNS(=O)(=O)c1cc(S(=O)(=O)c2ccccc2)ccc1C(F)(F)F)C(=O)N1CCNCC1` [Example 975, N-methyl-N-[3-({[5-(phenylsulfonyl)-2-(trifluoromethyl)phenyl]sulfonyl}amino)propyl]piperazine-1-carboxamide]: in test [1], the half-maximal inhibitory concentration (IC50) amounted to 1500 nM. This compound also showed a concentration for a half-maximal effect (EC50) in test [2] of 5700 nM.
In test [1], `O=C(c1cc(Cl)cnc1Cl)N1CCC(NS(=O)(=O)c2cc(S(=O)(=O)c3ccccc3)ccc2C(F)(F)F)CC1` [Example 977, N-{1-[(2,5-dichloropyridin-3-yl)carbonyl]piperidin-4-yl}-5-(phenylsulfonyl)-2-(trifluoromethyl)benzenesulfonamide] showed an IC50 of 180 nM. In addition, in test [2], the concentration for a half-maximal effect (EC50) came out at 1100 nM.
In the case of `O=C(c1ccnc(Cl)c1)N1CCC(NS(=O)(=O)c2cc(S(=O)(=O)c3ccccc3)ccc2C(F)(F)F)CC1` [Example 978, N-[1-(2-chloroisonicotinoyl)piperidin-4-yl]-5-(phenylsulfonyl)-2-(trifluoromethyl)benzenesulfonamide], the half-inhibitory concentration (IC50) in test [1] was 250 nM. Also, the half-maximal effective concentration (EC50) in test [2] amounted to 392 nM.
For `O=C(O)c1ccc(-c2ccc(CNS(=O)(=O)c3cc(S(=O)(=O)c4ccccc4)ccc3C(F)(F)F)cc2)cc1` [Example 979, 4′-[({[5-(phenylsulfonyl)-2-(trifluoromethyl)phenyl]sulfonyl}amino)methyl]biphenyl-4-carboxylic acid], in that order: 2200 nM and 2940 nM.
Taken in the same sequence, the figures for `CN(CCNS(=O)(=O)c1cc(S(=O)(=O)c2ccccc2)ccc1C(F)(F)F)C(=O)NC1CCN(C(=O)CCC(=O)O)CC1` [Example 980, 4-{4-[({methyl[2-({[5-(phenylsulfonyl)-2-(trifluoromethyl)phenyl]sulfonyl}amino)ethyl]amino}carbonyl)amino]piperidin-1-yl}-4-oxobutanoic acid] were 400 nM and 853 nM.
For `CN(CCNS(=O)(=O)c1cc(S(=O)(=O)c2ccccc2)ccc1C(F)(F)F)C(=O)c1ccc(CBr)cc1` [Example 983, 4-(bromomethyl)-N-methyl-N-[2-({[5-(phenylsulfonyl)-2-(trifluoromethyl)phenyl]sulfonyl}amino)ethyl]benzamide], in that order: 800 nM and 1140 nM.
As for `O=S(=O)(NCCc1ccc(-c2nn[nH]n2)cc1)c1cc(S(=O)(=O)c2ccccc2)ccc1C(F)(F)F` [Example 984, 5-(phenylsulfonyl)-N-{2-[4-(2H-tetrazol-5-yl)phenyl]ethyl}-2-(trifluoromethyl)benzenesulfonamide], in test [1], the IC50 worked out at 200 nM. Further, the response in test [2] was half-maximal at 657 nM (EC50).
Consider `CS(=O)(=O)Nc1ccc(CCNS(=O)(=O)c2cc(S(=O)(=O)c3ccccc3)ccc2C(F)(F)F)cc1` [Example 987, N-(2-{4-[(methylsulfonyl)amino]phenyl}ethyl)-5-(phenylsulfonyl)-2-(trifluoromethyl)benzenesulfonamide], for which the IC50 in test [1] came out at 140 nM. In test [2], it took 231 nM to reach a half-maximal effect (EC50).
In the case of `CC(C)(C)OC(=O)NCCCNS(=O)(=O)c1cc(S(=O)(=O)c2ccccc2)ccc1C(F)(F)F` [Example 988, tert-butyl [3-({[5-(phenylsulfonyl)-2-(trifluoromethyl)phenyl]sulfonyl}amino)propyl]carbamate], the half-inhibitory concentration (IC50) in test [1] worked out at 1100 nM. In test [2], this compound came in with a concentration giving a half-maximal response (EC50) of 1890 nM.
`CN(CCNS(=O)(=O)c1cc(S(=O)(=O)c2ccccc2)ccc1C(F)(F)F)C(=O)N[C@@H]1CCN(C(=O)OC(C)(C)C)C1` [Example 990, tert-butyl (3R)-3-[({methyl[2-({[5-(phenylsulfonyl)-2-(trifluoromethyl)phenyl]sulfonyl}amino)ethyl]amino}carbonyl)amino]pyrrolidine-1-carboxylate] yielded an IC50 in test [1] of 130 nM. In test [2], this compound showed a 50% effective concentration (EC50) of 577 nM.
In turn, `COc1ccc2c(c1)CC(NS(=O)(=O)c1cc(S(=O)(=O)c3ccccc3)ccc1C(F)(F)F)C2` (stereo not drawn) [Example 991, N-(5-methoxy-2,3-dihydro-1H-inden-2-yl)-5-(phenylsulfonyl)-2-(trifluoromethyl)benzenesulfonamide] showed an IC50 in test [1] of 80 nM. In test [2], this compound had a half-maximal effective concentration (EC50) of 2640 nM.
As for `CN(CCCNS(=O)(=O)c1cc(S(=O)(=O)c2ccccc2)ccc1C(F)(F)F)C(=O)CCC(=O)O` [Example 992, 4-{methyl[3-({(5-(phenylsulfonyl)-2-(trifluoromethyl)phenyl]sulfonyl}amino)propyl]amino}-4-oxobutanoic acid], the IC50 in test [1] turned out to be 700 nM. Also, the half-maximal effective concentration (EC50) in test [2] came to 3160 nM.
Compound `NCCCNS(=O)(=O)c1cc(S(=O)(=O)c2ccccc2)ccc1C(F)(F)F` [Example 993, N-(3-aminopropyl)-5-(phenylsulfonyl)-2-(trifluoromethyl)benzenesulfonamide] returned an IC50 in test [1] of 1500 nM. The compound also came in with a concentration giving a half-maximal response (EC50) in test [2] of 2290 nM.

A word on the IC50: it is the concentration that inhibits the measured activity by half. Read a high IC50 as weaker potency in that assay. In general, EC50 refers to the concentration at which the effect is half-maximal. A low value points to greater potency.
